Laboratory results published in patent US8318637B2, “Herbicide/azole combination” (Bayer Cropscience AG, priority 2007, dated 2012).

Columns and labels:
Format in all cases: in vivo
[1] = system: Wheat; experiment: Greenhouse trial, post-emergence crop damage, visual scoring; settings: approx. 4 weeks after application
Experimental: (§1) The seeds of typical harmful plants and of typical cereal plants were sown, allowed to emerge and grown under greenhouse conditions. Treatment with the compositions according to the invention was carried out after emergence of the harmful plants generally at the 2- to 4-leaf stage at various dosages using a water application rate of 300 l/ha (converted).
(§2) After the treatment (approx. 4 weeks after application), the herbidical activity of the active compounds or active compound mixtures was scored visually by comparing the treated plots with untreated control plots. Damage and development of all above-ground parts of the plants was recorded. Scoring was done on a percentage scale (100% activity=all plants dead; 50% activity=50% of the plants and green plant parts dead; 0% activity=no discernible activity=like control plot).
(§3) The results are listed in the tables below, where the activity measured for the independent use of the active compounds A) and B) is stated in brackets and g of AS/ha means gram of active substance per hectare.

[2] = system: Lolium multiflorum; experiment: Greenhouse trial, post-emergence herbicidal action, visual scoring; settings: 672 h, approx. 4 weeks after application
Experimental: as §1, §2, §3

[3] = system: Alopecurus myosuroidis; experiment: as above; settings: 672 h, approx. 4 weeks after application
Experimental: as §1, §2, §3

Fc1ccc([C@]2(Cn3cncn3)O[C@H]2c2ccccc2Cl)cc1 (racemic) [epoxiconazole]
0%: Wheat % damage ([1]; 125 g of AS/ha) | Wheat % damage ([1]; 250 g of AS/ha) | inhibition at 125 g/ha ([2]; 125 g of AS/ha) | inhibition at 250 g/ha ([2]; 250 g of AS/ha) | inhibition at 125 g/ha ([3]; 125 g of AS/ha) | inhibition at 250 g/ha ([3]; 250 g of AS/ha)
